The results in this text go back to US20210300943A1, “OGA INHIBITOR COMPOUNDS” (Janssen Pharmaceutica NV, priority 2018, published 2021).

The target in one series is T1, recombinant human Meningioma Expressed Antigen 5 (MGEA5), also referred to as O-GlcNAcase (OGA) (Homo sapiens, UniProt O60502).
T1 construct: Full length OGA enzyme was purchased at OnGene (cat #TP322411); purchased OnGene (so in the source)
T1 sequence (O60502 1-916): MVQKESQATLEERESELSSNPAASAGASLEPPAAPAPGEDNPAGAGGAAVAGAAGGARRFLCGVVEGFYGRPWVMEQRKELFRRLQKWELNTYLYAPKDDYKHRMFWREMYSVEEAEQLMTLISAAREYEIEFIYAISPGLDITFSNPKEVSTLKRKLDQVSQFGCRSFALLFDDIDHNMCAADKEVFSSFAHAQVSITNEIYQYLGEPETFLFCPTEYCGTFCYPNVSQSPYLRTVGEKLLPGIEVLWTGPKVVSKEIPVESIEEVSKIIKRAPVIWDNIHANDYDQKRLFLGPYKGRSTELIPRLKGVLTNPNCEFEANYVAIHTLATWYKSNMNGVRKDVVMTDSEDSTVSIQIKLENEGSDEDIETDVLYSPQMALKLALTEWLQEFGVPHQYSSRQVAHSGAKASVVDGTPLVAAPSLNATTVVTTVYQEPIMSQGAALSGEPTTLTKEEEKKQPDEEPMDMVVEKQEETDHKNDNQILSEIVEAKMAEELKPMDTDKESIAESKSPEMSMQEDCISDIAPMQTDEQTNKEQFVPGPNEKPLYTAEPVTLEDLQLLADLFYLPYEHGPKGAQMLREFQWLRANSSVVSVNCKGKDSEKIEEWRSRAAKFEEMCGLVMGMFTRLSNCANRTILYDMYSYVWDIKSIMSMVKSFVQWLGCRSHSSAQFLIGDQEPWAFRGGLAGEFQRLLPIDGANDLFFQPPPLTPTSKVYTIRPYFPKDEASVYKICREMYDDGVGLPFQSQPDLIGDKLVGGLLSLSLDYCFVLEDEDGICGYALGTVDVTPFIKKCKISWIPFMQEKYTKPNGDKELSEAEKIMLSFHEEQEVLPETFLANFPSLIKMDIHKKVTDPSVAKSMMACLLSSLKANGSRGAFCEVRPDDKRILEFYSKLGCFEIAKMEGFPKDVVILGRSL
Put plainly: OGA biochemical assay (inhibition of FM-GlcNAc hydrolysis, fluorescence). Particulars: maximal effect. The method, boiled down:
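Full-length recombinant OGA (2 nM) pre-incubated with compound 60 min at room temperature, then FM-GlcNAc (100 µM final) added in citrate/phosphate buffer pH 7.2 with 0.005% Tween-20. After 6 h at room temperature, stopped with carbonate pH 11.0; fluorescein read at 485/538 nm; IC50 and Hill coefficient from curve fit.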
As to `Cc1cc(C[C@H]2CCCN(C(C)c3ccc4c(n3)OCC(=O)N4)C2)cc(C)n1` (single isomer, unassigned) [Product 61], the “Enzymatic Emax (%)” value was 102%.

Regarding `Cc1cc(C[C@H]2CCCN(C(C)c3cnc4c(c3)OCCN4)C2)cc(C)n1` (single isomer, unassigned) [Product 52], the “Enzymatic Emax (%)” value worked out at 104%.

For the compound `Cc1cc(OC[C@H]2CCCN(C(C)c3nc4c(cc3F)OCCO4)C2)cc(C)n1` (single isomer, unassigned) [Product 156], the “Enzymatic Emax (%)” value is 97%.

Still in this series, the particulars now being: maximal effect, read-out: Enzymatic Emax (%).
A word on the Emax: it is the size of the effect at its maximum, as opposed to the concentration needed. For `COc1cc(OC2CCCN(C(C)c3ccc4c(n3)OCCO4)C2)cc(C)n1` (stereo not drawn) [Product 18], the Emax was determined as 100%.

Regarding `Cc1cc(OC[C@H]2CCCN(C(C)c3cc4c(cc3F)NCCO4)C2)cc(C)n1` (stereo partly drawn) [Product 191], the Emax came to 95%.

`Cc1cc([C@H]2CCCN(C(C)c3nc4c(cc3F)OCCO4)C2)cc(C)n1` (single isomer, unassigned) [Product 164]: the Emax came to 100%.

As for `Cc1cc(C2CCCN(C(C)c3ccc4c(n3)OCCO4)C2)cc(C)n1` (stereo not drawn) [Product 1], the Emax came to 102%.

With `COc1cc(C[C@H]2CCCN([C@H](C)c3ccc4c(n3)OCCO4)C2)cc(C)n1` [Product 64], the Emax came out at 101%.

`Cc1cc(C2CCCN([C@H](C)c3ccc4c(n3)OCCO4)C2)nc(C)n1` (mixture of isomers) [Product 113]: the Emax worked out at 100%.

With `Cc1cc(C[C@H]2CCCN(Cc3ccc4c(n3)OCCO4)C2)cc(C)n1` [Product 43], the Emax was 101%.

With `Cc1cc(OC[C@H]2CCCN([C@@H](C)c3ccc4c(n3)OCCO4)C2)cc(C)n1` (single isomer, unassigned) [Product 140], the Emax stood at 72%.

Take `Cc1cc([C@@H]2CCCN(C(C)c3ccc4c(n3)OCCO4)C2)cc(C)n1` (single isomer, unassigned) [Product 150]: the Emax amounted to 92%.

Consider `Cc1cc(CC2(F)CCCN([C@@H](C)c3ccc4c(n3)OCCO4)C2)cc(C)n1` (single isomer, unassigned) [Product 177], for which the Emax was determined as 81%.

In the case of `Cc1cc(OC[C@H]2CCCN(C(C)c3cnc4c(c3)OCCN4)C2)cc(C)n1` (stereo partly drawn) [Product 146], the Emax was found to be 99%.

Still in this series, the particulars now being: read-out: Enzymatic hOGA, pIC50 (converted).
On to `Cc1cc(C[C@H]2CCCN(C(C)c3ccc4c(n3)OCC(=O)N4)C2)cc(C)n1` (single isomer, unassigned) [Product 61], for which the IC50 is 39.8 nM.

`COc1cc(OC2CCCN(C(C)c3ccc4c(n3)OCCO4)C2)cc(C)n1` (stereo not drawn) [Product 18]: the IC50 was 50.1 nM.

For the compound `Cc1cc(OC[C@H]2CCCN(C(C)c3cc4c(cc3F)NCCO4)C2)cc(C)n1` (stereo partly drawn) [Product 191], the IC50 was 5.01 nM.

Turning to `Cc1cc([C@H]2CCCN(C(C)c3nc4c(cc3F)OCCO4)C2)cc(C)n1` (single isomer, unassigned) [Product 164], the IC50 was 3.16 nM.

For `Cc1cc(C2CCCN(C(C)c3ccc4c(n3)OCCO4)C2)cc(C)n1` (stereo not drawn) [Product 1], the IC50 was 20 nM.

As to `COc1cc(C[C@H]2CCCN([C@H](C)c3ccc4c(n3)OCCO4)C2)cc(C)n1` [Product 64], the IC50 is 3.98 nM.

Turning to `Cc1cc(C[C@H]2CCCN(C(C)c3cnc4c(c3)OCCN4)C2)cc(C)n1` (single isomer, unassigned) [Product 52], the IC50 was 1.26 nM.

Consider `Cc1cc(C2CCCN([C@H](C)c3ccc4c(n3)OCCO4)C2)nc(C)n1` (mixture of isomers) [Product 113], for which the IC50 was 100 nM.

`Cc1cc(C[C@H]2CCCN(Cc3ccc4c(n3)OCCO4)C2)cc(C)n1` [Product 43]: the IC50 is 63.1 nM.

As to `Cc1cc(OC[C@H]2CCCN([C@@H](C)c3ccc4c(n3)OCCO4)C2)cc(C)n1` (single isomer, unassigned) [Product 140], the IC50 is 3980 nM.

Regarding `Cc1cc([C@@H]2CCCN(C(C)c3ccc4c(n3)OCCO4)C2)cc(C)n1` (single isomer, unassigned) [Product 150], the IC50 is 2000 nM.

`Cc1cc(CC2(F)CCCN([C@@H](C)c3ccc4c(n3)OCCO4)C2)cc(C)n1` (single isomer, unassigned) [Product 177]: the IC50 was 2510 nM.

As for `Cc1cc(OC[C@H]2CCCN(C(C)c3cnc4c(c3)OCCN4)C2)cc(C)n1` (stereo partly drawn) [Product 146], the IC50 was 6.31 nM.

In the case of `Cc1cc(OC[C@H]2CCCN(C(C)c3nc4c(cc3F)OCCO4)C2)cc(C)n1` (single isomer, unassigned) [Product 156], the IC50 was 251 nM.

The target in the next series is T2, OGA (Homo sapiens, UniProt O60502).
T2 construct: endogenous in cells; host or cells: HEK293 cells inducible for P301L mutant human Tau (2N4R)
T2 sequence (O60502 1-916): T1 sequence (O60502 1-916)
Put plainly: OGA cellular assay (ICC detection of O-GlcNAcylated proteins in HEK293 cells inducible for P301L mutant human Tau). In kind it is cell-based. The conditions noted are these: HEK293, HEK293 cells inducible for P301L mutant human Tau, maximal effect; Thiamet G 200 uM as maximum. The essentials: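 HEK293 cells inducible for P301L Tau, in low-glucose assay medium, treated 6 h with compound at 0.2% DMSO. O-GlcNAcylated proteins detected by CTD110.6 immunostaining, imaged at 488 nm with Hoechst nuclear counts for toxicity. IC50 from non-linear regression, 200 uM Thiamet G as maximum.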
For the compound `Cc1cc(C[C@H]2CCCN(C(C)c3ccc4c(n3)OCC(=O)N4)C2)cc(C)n1` (single isomer, unassigned) [Product 61], the Emax turned out to be 45%.

Consider `COc1cc(OC2CCCN(C(C)c3ccc4c(n3)OCCO4)C2)cc(C)n1` (stereo not drawn) [Product 18], for which the Emax is 57%.

For the compound `Cc1cc(OC[C@H]2CCCN(C(C)c3cc4c(cc3F)NCCO4)C2)cc(C)n1` (stereo partly drawn) [Product 191], the Emax is 81%.

As to `Cc1cc([C@H]2CCCN(C(C)c3nc4c(cc3F)OCCO4)C2)cc(C)n1` (single isomer, unassigned) [Product 164], the Emax was 86%.

In the case of `Cc1cc(C2CCCN(C(C)c3ccc4c(n3)OCCO4)C2)cc(C)n1` (stereo not drawn) [Product 1], the Emax was 77%.

Take `COc1cc(C[C@H]2CCCN([C@H](C)c3ccc4c(n3)OCCO4)C2)cc(C)n1` [Product 64]: the Emax amounted to 97%.

As for `Cc1cc(C[C@H]2CCCN(C(C)c3cnc4c(c3)OCCN4)C2)cc(C)n1` (single isomer, unassigned) [Product 52], the Emax came to 92%.

Turning to `Cc1cc(C2CCCN([C@H](C)c3ccc4c(n3)OCCO4)C2)nc(C)n1` (mixture of isomers) [Product 113], the Emax came out at 55%.

Consider `Cc1cc(C[C@H]2CCCN(Cc3ccc4c(n3)OCCO4)C2)cc(C)n1` [Product 43], for which the Emax was found to be 60%.

Take `Cc1cc(OC[C@H]2CCCN([C@@H](C)c3ccc4c(n3)OCCO4)C2)cc(C)n1` (single isomer, unassigned) [Product 140]: the Emax was found to be 2%.

As to `Cc1cc([C@@H]2CCCN(C(C)c3ccc4c(n3)OCCO4)C2)cc(C)n1` (single isomer, unassigned) [Product 150], the Emax is 3%.

With `Cc1cc(CC2(F)CCCN([C@@H](C)c3ccc4c(n3)OCCO4)C2)cc(C)n1` (single isomer, unassigned) [Product 177], the Emax is -8%.

As for `Cc1cc(OC[C@H]2CCCN(C(C)c3cnc4c(c3)OCCN4)C2)cc(C)n1` (stereo partly drawn) [Product 146], the Emax turned out to be 79%.

Staying with this series, now noted: HEK293 cells inducible for P301L mutant human Tau, 6 hours incubation; read-out: Cellular hOGA; pEC50 (converted).
Take `Cc1cc(C[C@H]2CCCN(C(C)c3ccc4c(n3)OCC(=O)N4)C2)cc(C)n1` (single isomer, unassigned) [Product 61]: the EC50 was above 1000 nM.

Consider `COc1cc(OC2CCCN(C(C)c3ccc4c(n3)OCCO4)C2)cc(C)n1` (stereo not drawn) [Product 18], for which the EC50 is 794 nM.

In the case of `Cc1cc(OC[C@H]2CCCN(C(C)c3cc4c(cc3F)NCCO4)C2)cc(C)n1` (stereo partly drawn) [Product 191], the EC50 was 15.8 nM.

On to `Cc1cc([C@H]2CCCN(C(C)c3nc4c(cc3F)OCCO4)C2)cc(C)n1` (single isomer, unassigned) [Product 164], for which the EC50 was 6.31 nM.

With `Cc1cc(C2CCCN(C(C)c3ccc4c(n3)OCCO4)C2)cc(C)n1` (stereo not drawn) [Product 1], the EC50 was 100 nM.

With `COc1cc(C[C@H]2CCCN([C@H](C)c3ccc4c(n3)OCCO4)C2)cc(C)n1` [Product 64], the EC50 was 15.8 nM.

In the case of `Cc1cc(C[C@H]2CCCN(C(C)c3cnc4c(c3)OCCN4)C2)cc(C)n1` (single isomer, unassigned) [Product 52], the EC50 was 6.31 nM.

Consider `Cc1cc(C2CCCN([C@H](C)c3ccc4c(n3)OCCO4)C2)nc(C)n1` (mixture of isomers) [Product 113], for which the EC50 was 794 nM.

Turning to `Cc1cc(C[C@H]2CCCN(Cc3ccc4c(n3)OCCO4)C2)cc(C)n1` [Product 43], the EC50 is 501 nM.

Regarding `Cc1cc(OC[C@H]2CCCN([C@@H](C)c3ccc4c(n3)OCCO4)C2)cc(C)n1` (single isomer, unassigned) [Product 140], the EC50 is above 1000 nM.

`Cc1cc([C@@H]2CCCN(C(C)c3ccc4c(n3)OCCO4)C2)cc(C)n1` (single isomer, unassigned) [Product 150]: the EC50 was above 1000 nM.

`Cc1cc(CC2(F)CCCN([C@@H](C)c3ccc4c(n3)OCCO4)C2)cc(C)n1` (single isomer, unassigned) [Product 177]: the EC50 is above 1000 nM.

In the case of `Cc1cc(OC[C@H]2CCCN(C(C)c3cnc4c(c3)OCCN4)C2)cc(C)n1` (stereo partly drawn) [Product 146], the EC50 is 10 nM.

`Cc1cc(OC[C@H]2CCCN(C(C)c3nc4c(cc3F)OCCO4)C2)cc(C)n1` (single isomer, unassigned) [Product 156]: the EC50 is 316 nM.

Staying with this series, now noted: HEK293 cells inducible for P301L mutant human Tau, maximal effect; Thiamet G 200 uM as maximum.
In the case of `Cc1cc(OC[C@H]2CCCN(C(C)c3nc4c(cc3F)OCCO4)C2)cc(C)n1` (single isomer, unassigned) [Product 156], the “Cellular Emax (%)” value is given as 55%.

Test system in another series: not given
Assay: not given
Conditions: not given
As a reminder, the melting point is the temperature of the solid-liquid transition. The compound `Cc1cc(C[C@H]2CCCN(C(C)c3ccc4c(n3)OCC(=O)N4)C2)cc(C)n1` (single isomer, unassigned) [Product 61] yielded a melting point of 62.45 °C.
